For 16 compounds, DC50 results are on record in patent publication US20240051946A1, “TARGETED PROTEIN DEGRADATION OF PARP14 FOR USE IN THERAPY” (Ribon Therapeutics, Inc., priority 2022, published 2024).

Molecules are shown by their SMILES.

In the assay the target is T1, catalytic domain of human PARP14 (residues 1611 to 1801) with NanoLuc tag (Homo sapiens, UniProt Q460N5).
T1 construct: expressed in transfected cells; host or cells: HEK-293T cells (ATCC), plasmid pRTX240 in pcDNA3.1(-)
T1 sequence (Q460N5 1611-1801): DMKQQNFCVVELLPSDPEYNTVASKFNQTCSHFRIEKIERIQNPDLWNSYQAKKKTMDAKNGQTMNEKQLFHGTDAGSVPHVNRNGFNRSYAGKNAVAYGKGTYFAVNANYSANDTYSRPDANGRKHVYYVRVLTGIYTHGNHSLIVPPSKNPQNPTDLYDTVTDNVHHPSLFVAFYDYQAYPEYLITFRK
The assay is described as follows: NanoLuc assay for the degradation of PARP14. Format: cell-based. The following applies: Assay A; NanoLuc-PARP14 overexpressed in HEK-293T cells; 2 hours at 37 degrees; luminescence. On the procedure:
The catalytic domain of human PARP14 (residues 1611 to 1801, GenBank Accession No. NM_017554) was inserted into the pcDNA3.1(−) vector. The insert also contained a NanoLuc tag on the N terminus of the PARP14 protein.
Degradation of PARP14 protein was assessed using measurement of the NanoLuc tag as proxy for the PARP14 protein. PARP14 with NanoLuc tag was overexpressed in […] cells (ATCC) using the plasmid described in Table 1. Plasmid DNA was diluted in empty vector DNA then added to 1.163 mL of phenol red free OptiMEM (Thermo Fisher). Plasmid DNA concentrations used in each assay described in Table 1. The plasmid DNA was mixed with 78.5 μL of Fugene HD (Promega) and allowed to incubate 5 minutes.
Next, 1.125 mL were added to 10 million 293T cells in DMEM (Thermo Fisher) supplemented with 10% FBS (VWR) and 1× Glutamax (Gibco). The transfection was incubated for 24 hrs at 37 degrees in an incubator supplemented with 5% CO2. The cells were then trypsinized and brought up in phenol red free OptiMEM media. Transfected HEK-293T cells were diluted to […] and then added to assay plate (Corning 3574) using a Multidrop (Thermo Fisher) to add 40 μL per well of the 384 well plate, resulting in 5,000 cells per well. 40 nL of a dose response curve diluted in DMSO of each test compound was added to the cell plate using a Mosquito (TTP Labtech) and the plate was incubated at 37 degrees for 2 hours. Assay plate was brought to room temperature then 20 μL per well of NanoGlo (Promega) was added to the plate. Luminescence was measured on an Envision (Perkin Elmer).
The average DMSO was calculated from 32 wells containing 0.1% DMSO only in columns 12 and 24 of the assay plate. The % of DMSO values were calculated as described below: […]
The % of DMSO values were plotted as a function of compound concentration and the following 4-parameter fit was applied to derive the DC50 values:
where top, bottom, and Hill Coefficient are allowed to float. Y is the % of DMSO and X is the compound concentration.
DC50 data for the Example compounds is provided below in Table 2 (“+” is <0.1 μM; “++” is ≥0.1 μM and <1 μM; and “+++” is ≥1 μM).

In the case of `CC(=O)N1CCC(COc2cc(F)c3c(=O)[nH]c(CSC4CCN(CC(=O)N5CCC(c6ccc(N7CCN(C8CCC(=O)NC8=O)C7=O)cc6)CC5)CC4)nc3c2)CC1` (stereo not shown) [Example 18, 3-(3-(4-(1-(2-(4-(((7-((1-acetylpiperidin-4-yl)methoxy)-5-fluoro-4-oxo-3,4-dihydroquinazolin-2-yl)methyl)thio)piperidin-1-yl)acetyl)piperidin-4-yl)phenyl)-2-oxoimidazolidin-1-yl)piperidine-2,6-dione], the DC50 was < 100 nM. Under `CC(=O)N1CCC(COc2cc(F)c3c(=O)[nH]c(CSC4CCN(CC(=O)N5CCC(CN6CCN(c7cccc8c7C(=O)N(C7CCC(=O)NC7=O)C8=O)CC6)CC5)CC4)nc3c2)CC1` (stereo not shown) [Example 19, 4-(4-((1-(2-(4-(((7-((1-acetylpiperidin-4-yl)methoxy)-5-fluoro-4-oxo-3,4-dihydroquinazolin-2-yl)methyl)thio)piperidin-1-yl)acetyl)piperidin-4-yl)methyl)piperazin-1-yl)-2-(2,6-dioxopiperidin-3-yl)isoindoline-1,3-dione] stands < 100 nM. Under `O=C1CCN(c2ccc(C3CCN(CC4CCN(C(=O)CN5CCC(SCc6nc7cc(OCC8CCOCC8)cc(F)c7c(=O)[nH]6)CC5)CC4)CC3)cc2)C(=O)N1` [Example 20, 1-(4-(1-((1-(2-(4-(((5-fluoro-4-oxo-7-((tetrahydro-2H-pyran-4-yl)methoxy)-3,4-dihydroquinazolin-2-yl)methyl)thio)piperidin-1-yl)acetyl)piperidin-4-yl)methyl)piperidin-4-yl)phenyl)dihydropyrimidine-2,4(1H,3H)-dione] stands < 100 nM; under `CC(=O)N1CCC(COc2cc(F)c3c(=O)[nH]c(CSC4CCN(C(=O)CNc5cccc6c5C(=O)N(C5CCC(=O)NC5=O)C6=O)CC4)nc3c2)CC1` (stereo not shown) [Example 21, 4-((2-(4-(((7-((1-acetylpiperidin-4-yl)methoxy)-5-fluoro-4-oxo-3,4-dihydroquinazolin-2-yl)methyl)thio)piperidin-1-yl)-2-oxoethyl)amino)-2-(2,6-dioxopiperidin-3-yl)isoindoline-1,3-dione], < 100 nM; under `CC(=O)N1CCC(COc2cc(F)c3c(=O)[nH]c(CSC4CCN(C(=O)C5CCN(CC6CCN(c7cccc8c7C(=O)N(C7CCC(=O)NC7=O)C8=O)CC6)CC5)CC4)nc3c2)CC1` (stereo not shown) [Example 22, 4-(4-((4-(4-(((7-((1-acetylpiperidin-4-yl)methoxy)-5-fluoro-4-oxo-3,4-dihydroquinazolin-2-yl)methyl)thio)piperidine-1-carbonyl)piperidin-1-yl)methyl)piperidin-1-yl)-2-(2,6-dioxopiperidin-3-yl)isoindoline-1,3-dione], < 100 nM.

`O=C1CCC(N2C(=O)c3cccc(N4CCC(CN5CCC(C(=O)N6CCC(SCc7nc8cc(NC9CCCC9)cc(F)c8c(=O)[nH]7)CC6)CC5)CC4)c3C2=O)C(=O)N1` (stereo not shown) [Example 23, 4-(4-((4-(4-(((7-(cyclopentylamino)-5-fluoro-4-oxo-3,4-dihydroquinazolin-2-yl)methyl)thio)piperidine-1-carbonyl)piperidin-1-yl)methyl)piperidin-1-yl)-2-(2,6-dioxopiperidin-3-yl)isoindoline-1,3-dione]: the DC50 was < 100 nM. The figure for `CC(=O)N1CCC(COc2cc(F)c3c(=O)[nH]c(CSC4CCN(C(=O)CNc5ccc6c(c5)C(=O)N(C5CCC(=O)NC5=O)C6=O)CC4)nc3c2)CC1` (stereo not shown) [Example 24, 5-((2-(4-(((7-((1-acetylpiperidin-4-yl)methoxy)-5-fluoro-4-oxo-3,4-dihydroquinazolin-2-yl)methyl)thio)piperidin-1-yl)-2-oxoethyl)amino)-2-(2,6-dioxopiperidin-3-yl)isoindoline-1,3-dione] is < 100 nM; for `CC(=O)N1CCC(COc2cc(F)c3c(=O)[nH]c(CSC4CCN(C(=O)c5ccc(NC6CCC(=O)NC6=O)cc5)CC4)nc3c2)CC1` (stereo not shown) [Example 25, 3-((4-(4-(((7-((1-acetylpiperidin-4-yl)methoxy)-5-fluoro-4-oxo-3,4-dihydroquinazolin-2-yl)methyl)thio)piperidine-1-carbonyl)phenyl)amino)piperidine-2,6-dione] it is < 100 nM.

`CC(=O)N1CCC(COc2cc(F)c3c(=O)[nH]c(CCC4CCN(C(=O)C5CCN(CC6CCN(c7cccc8c7C(=O)N(C7CCC(=O)NC7=O)C8=O)CC6)CC5)CC4)nc3c2)CC1` (stereo not shown) [Example 26, 4-(4-((4-(4-(2-(7-((1-acetylpiperidin-4-yl)methoxy)-5-fluoro-4-oxo-3,4-dihydroquinazolin-2-yl)ethyl)piperidine-1-carbonyl)piperidin-1-yl)methyl)piperidin-1-yl)-2-(2,6-dioxopiperidin-3-yl)isoindoline-1,3-dione]: the DC50 was < 100 nM. In the case of `CC(=O)N1CCC(COc2cc(F)c3c(=O)[nH]c(CCC4CCN(CC(=O)N5CCC(CN6CCN(c7cccc8c7C(=O)N(C7CCC(=O)NC7=O)C8=O)CC6)CC5)CC4)nc3c2)CC1` (stereo not shown) [Example 27, 4-(4-((1-(2-(4-(2-(7-((1-acetylpiperidin-4-yl)methoxy)-5-fluoro-4-oxo-3,4-dihydroquinazolin-2-yl)ethyl)piperidin-1-yl)acetyl)piperidin-4-yl)methyl)piperazin-1-yl)-2-(2,6-dioxopiperidin-3-yl)isoindoline-1,3-dione], the DC50 was < 100 nM. As for `CC(=O)N1CCC(COc2cc(F)c3c(=O)[nH]c(CSC4CCN(CC(=O)N5CCC(CN6CCN(c7ccc8c(c7)C(=O)N(C7CCC(=O)NC7=O)C8=O)CC6)CC5)CC4)nc3c2)CC1` (stereo not shown) [Example 28, 5-(4-((1-(2-(4-(((7-((1-acetylpiperidin-4-yl)methoxy)-5-fluoro-4-oxo-3,4-dihydroquinazolin-2-yl)methyl)thio)piperidin-1-yl)acetyl)piperidin-4-yl)methyl)piperazin-1-yl)-2-(2,6-dioxopiperidin-3-yl)isoindoline-1,3-dione], the DC50 was < 100 nM. Under `O=C1CCC(N2C(=O)c3ccc(N4CCN(CC5CCN(C(=O)CN6CCC(SCc7nc8cc(NC9CCCC9)cc(F)c8c(=O)[nH]7)CC6)CC5)CC4)cc3C2=O)C(=O)N1` (stereo not shown) [Example 29, 5-(4-((1-(2-(4-(((7-(cyclopentylamino)-5-fluoro-4-oxo-3,4-dihydroquinazolin-2-yl)methyl)thio)piperidin-1-yl)acetyl)piperidin-4-yl)methyl)piperazin-1-yl)-2-(2,6-dioxopiperidin-3-yl)isoindoline-1,3-dione] stands < 100 nM; under `CC(=O)N1CCC(COc2cc(F)c3c(=O)[nH]c(CSC4CCN(c5ccc6c(c5)C(=O)N(C5CCC(=O)NC5=O)C6=O)CC4)nc3c2)CC1` (stereo not shown) [Example 30, 5-(4-(((7-((1-acetylpiperidin-4-yl)methoxy)-5-fluoro-4-oxo-3,4-dihydroquinazolin-2-yl)methyl)thio)piperidin-1-yl)-2-(2,6-dioxopiperidin-3-yl)isoindoline-1,3-dione], < 100 nM. Under `CC(=O)N1CCC(COc2cc(F)c3c(=O)[nH]c(CSC4CCN(CC(=O)Nc5cccc6c5C(=O)N(C5CCC(=O)NC5=O)C6=O)CC4)nc3c2)CC1` (stereo not shown) [Example 31, 2-(4-(((7-((1-acetylpiperidin-4-yl)methoxy)-5-fluoro-4-oxo-3,4-dihydroquinazolin-2-yl)methyl)thio)piperidin-1-yl)-N-(2-(2,6-dioxopiperidin-3-yl)-1,3-dioxoisoindolin-4-yl)acetamide] stands 100 to 1000 nM. Under `CC(=O)N1CCC(COc2cc(F)c3c(=O)[nH]c(CSC4CCN(CC(=O)Nc5ccc6c(c5)C(=O)N(C5CCC(=O)NC5=O)C6=O)CC4)nc3c2)CC1` (stereo not shown) [Example 32, 2-(4-(((7-((1-acetylpiperidin-4-yl)methoxy)-5-fluoro-4-oxo-3,4-dihydroquinazolin-2-yl)methyl)thio)piperidin-1-yl)-N-(2-(2,6-dioxopiperidin-3-yl)-1,3-dioxoisoindolin-5-yl)acetamide] stands < 100 nM; under `CC(=O)N1CCC(COc2cc(F)c3c(=O)[nH]c(CSC4CCN(CC5CCN(c6ccc7c(c6)C(=O)N(C6CCC(=O)NC6=O)C7=O)CC5)CC4)nc3c2)CC1` (stereo not shown) [Example 33, 5-(4-((4-(((7-((1-acetylpiperidin-4-yl)methoxy)-5-fluoro-4-oxo-3,4-dihydroquinazolin-2-yl)methyl)thio)piperidin-1-yl)methyl)piperidin-1-yl)-2-(2,6-dioxopiperidin-3-yl)isoindoline-1,3-dione], < 100 nM.
